Results as given in patent US8378100B2, “Phosphonate derivatives as autotaxin inhibitors” (University of Virginia Patent Foundation, priority 2008, dated 2013).

Biological target: recombinant human ATX (Homo sapiens, UniProt Q13822)
Assay: Choline detection assay for ATX
Format: biochemical
Conditions: activity without test compound = 100%; for ATX activity (%) 1 μM: 1 μM test compound; for ATX activity (%) 10 Mm: 10 μM test compound as printed; for ATX activity (%) 100 μM: 100 μM test compound; for ATX activity (%) 10 μM: 10 μM test compound
Procedure: The phosphonate derivatives were tested in choline detection assay for ATX inhibition. The ATX activity assay was conducted in 0.1 ml, buffer: (in mM: Tris-HCl 100, pH9, NaCl 150, MgCl2 5, CoSO4 0.03, 0.05% Triton X-100), 1 mM 18:1 LPC, using recombinant human ATX with or without test compounds; incubation was for 16 hours at 37° C. The released choline was detected as follows: Samples were mixed with 0.15 ml of 50 mM TrisHCl containing 2.7 mM TOOS(N-ethyl-N-2-hydroxy-3-sulfopropyl)-m-toluidine, 2.7 mM 4-AAP (4-aminoantipyrine), 47.7 U/ml horseradish peroxidase, 18 U/ml choline oxidase, and 5 mM MgCl2. After 30 min incubation at 37° C., light absorbance (550 nm) was determined, and the amount of choline release was calculated from a standard curve.
The ATX activity was measured in the presence of the test compounds under different concentrations (100 μM, 10 μM and 1 μM). The ATX activity without TEST compounds was used as the standard (100% activity). Some β-hydroxy phosphonate derivatives inhibited ATX activity at only the highest concentration tested. […] These two compounds were synthesized from protected L-tyrosine and they are diastereomers. The less polar isomer, f17, (also known as VPC8a202) was able to inhibit 73% of ATX activity at 1 μM.

[1] = table of g1-g15 (β-keto phosphonates)

## CCCCCCCCCCCCCCCC(=O)N[C@H](Cc1ccc(OCCC)cc1)C(O)CP(=O)(O)O (single isomer, unassigned) [f24]
Table 1 (f1-f34), 1 µM
  ATX activity (%) 1 μM: 108%
Table 1 (f1-f34)
  ATX activity (%) 10 Mm: 108%
Table 1 (f1-f34), 100 µM
  ATX activity (%) 100 μM: 90%

## CCCCCCCCCCCCCCCC(=O)N[C@@H](Cc1ccc(OCCC)cc1)C(O)CP(=O)(O)O (single isomer, unassigned) [f25]
Table 1 (f1-f34), 1 µM
  ATX activity (%) 1 μM: 110%
Table 1 (f1-f34)
  ATX activity (%) 10 Mm: 97%
Table 1 (f1-f34), 100 µM
  ATX activity (%) 100 μM: 77%

## CCCCCCCCCCCCCCCC(=O)N[C@@H](Cc1ccc(OCCC)cc1)C(O)CP(=O)(O)O (single isomer, unassigned) [f26]
Table 1 (f1-f34), 1 µM
  ATX activity (%) 1 μM: 100%
Table 1 (f1-f34)
  ATX activity (%) 10 Mm: 100%
Table 1 (f1-f34), 100 µM
  ATX activity (%) 100 μM: 83%

## CCCCCCCCCCCCCCCC(=O)N[C@H](Cc1ccc(OCCCCC)cc1)C(O)CP(=O)(O)O (single isomer, unassigned) [f27]
Table 1 (f1-f34), 1 µM
  ATX activity (%) 1 μM: 81%
Table 1 (f1-f34)
  ATX activity (%) 10 Mm: 85%
Table 1 (f1-f34), 100 µM
  ATX activity (%) 100 μM: 80%

## CCCCCCCCCCCCCCCC(=O)N[C@H](Cc1ccc(OCCCCC)cc1)C(O)CP(=O)(O)O (single isomer, unassigned) [f28]
Table 1 (f1-f34), 1 µM
  ATX activity (%) 1 μM: 86%
Table 1 (f1-f34)
  ATX activity (%) 10 Mm: 82%
Table 1 (f1-f34), 100 µM
  ATX activity (%) 100 μM: 70%

## CCCCCCCCCCCCCCCC(=O)N[C@@H](Cc1ccc(OCCCCC)cc1)C(O)CP(=O)(O)O (single isomer, unassigned) [f29]
Table 1 (f1-f34), 1 µM
  ATX activity (%) 1 μM: 98%
Table 1 (f1-f34)
  ATX activity (%) 10 Mm: 83%
Table 1 (f1-f34), 100 µM
  ATX activity (%) 100 μM: 67%

## CCCCCCCCCCCCCCCC(=O)N[C@@H](Cc1ccc(OCCCCC)cc1)C(O)CP(=O)(O)O (single isomer, unassigned) [f30]
Table 1 (f1-f34), 1 µM
  ATX activity (%) 1 μM: 94%
Table 1 (f1-f34)
  ATX activity (%) 10 Mm: 90%
Table 1 (f1-f34), 100 µM
  ATX activity (%) 100 μM: 70%

## CCCCCCCCCC(=O)N[C@H](Cc1ccc(OCc2ncc(C)c(OC)c2C)cc1)C(O)CP(=O)(O)O (single isomer, unassigned) [f35]
Table 2 (f35-f44)
  ATX activity (%) 10 μM: 86%
  ATX activity (%) 100 μM: 30%

## CCCCCCCCCCCCCC(=O)N[C@H](Cc1ccc(OCc2ncc(C)c(OC)c2C)cc1)C(O)CP(=O)(O)O (single isomer, unassigned) [f37]
Table 2 (f35-f44)
  ATX activity (%) 10 μM: 99%
Table 2 (f35-f44), 100 µM
  ATX activity (%) 100 μM: 67%

## CCCCCCCCCCCCCC(=O)N[C@H](Cc1ccc(OCc2ncc(C)c(OC)c2C)cc1)C(O)CP(=O)(O)O (single isomer, unassigned) [f38]
Table 2 (f35-f44), 100 µM
  ATX activity (%) 100 μM: 35%

## CCCCCCCCCCCCCCCCCC(=O)N[C@@H](Cc1ccc(OCc2ncc(C)c(OC)c2C)cc1)C(O)CP(=O)(O)O (single isomer, unassigned) [f39]
Table 2 (f35-f44)
  ATX activity (%) 1 μM: 101%
Table 2 (f35-f44), 10 µM
  ATX activity (%) 10 μM: 91%
Table 2 (f35-f44), 100 µM
  ATX activity (%) 100 μM: 81%

## CCCCCCCCCCCCCCCCCC(=O)N[C@@H](Cc1ccc(OCc2ncc(C)c(OC)c2C)cc1)C(O)CP(=O)(O)O (single isomer, unassigned) [f40]
Table 2 (f35-f44), 10 µM
  ATX activity (%) 10 μM: 90%
Table 2 (f35-f44), 100 µM
  ATX activity (%) 100 μM: 62%

## CCCCCCCC/C=C\CCCCCCCC(=O)N[C@@H](Cc1ccc(OCc2ncc(C)c(OC)c2C)cc1)C(O)CP(=O)(O)O (single isomer, unassigned) [f41]
Table 2 (f35-f44), 10 µM
  ATX activity (%) 10 μM: 45%
Table 2 (f35-f44), 100 µM
  ATX activity (%) 100 μM: 15%

## CCCCCCCC/C=C\CCCCCCCC(=O)N[C@@H](Cc1ccc(OCc2ncc(C)c(OC)c2C)cc1)C(O)CP(=O)(O)O (single isomer, unassigned) [f42]
Table 2 (f35-f44)
  ATX activity (%) 1 μM: 77%
Table 2 (f35-f44), 10 µM
  ATX activity (%) 10 μM: 68%
Table 2 (f35-f44), 100 µM
  ATX activity (%) 100 μM: 58%

## CCCCCCCCCCCCCCCCCCCC(=O)NC(Cc1ccc(OCc2ncc(C)c(OC)c2C)cc1)C(O)CP(=O)(O)O (single isomer, unassigned) [f43]
Table 2 (f35-f44)
  ATX activity (%) 1 μM: 64%
  ATX activity (%) 10 μM: 45%
  ATX activity (%) 100 μM: 10%

## CCCCCCCCCCCCCCCC(=O)N[C@H](Cc1ccc(OCc2ccccc2)cc1)C(=O)CP(=O)(O)O [g3]
[1]
  ATX activity (%) 10 μM: 82%
  ATX activity (%) 100 μM: 76%

## CCCCCCCCCCCCCCCC(=O)N[C@@H](Cc1ccc(OCc2ccccc2)cc1)C(=O)CP(=O)(O)O [g4]
[1]
  ATX activity (%) 10 μM: 71%
  ATX activity (%) 100 μM: 61%

## CCCCCCCCCCCCCCCC(=O)N[C@@H](Cc1ccc(OCc2ncc(C)c(OC)c2C)cc1)C(=O)CP(=O)(O)O [g7]
[1]
  ATX activity (%) 1 μM: 71%
  ATX activity (%) 10 μM: 74%
  ATX activity (%) 100 μM: 26%

## CCCCCCCCCCCCCCCC(=O)N[C@H](Cc1ccc(OC)cc1)C(=O)CP(=O)(O)O [g8]
[1]
  ATX activity (%) 1 μM: 84%
  ATX activity (%) 10 μM: 71%
  ATX activity (%) 100 μM: 32%

## CCCCCCCCCCCCCCCC(=O)N[C@@H](Cc1ccc(OC)cc1)C(=O)CP(=O)(O)O [g9]
[1]
  ATX activity (%) 1 μM: 96%
  ATX activity (%) 10 μM: 68%
  ATX activity (%) 100 μM: 45%

## CCCCCCCCCCCCCCCC(=O)N[C@H](Cc1ccc(OCCC)cc1)C(=O)CP(=O)(O)O [g10]
[1]
  ATX activity (%) 1 μM: 104%
  ATX activity (%) 10 μM: 97%
  ATX activity (%) 100 μM: 75%

## CCCCCCCCCCCCCCCC(=O)N[C@@H](Cc1ccc(OCCC)cc1)C(=O)CP(=O)(O)O [g11]
[1]
  ATX activity (%) 10 μM: 97%
  ATX activity (%) 100 μM: 72%

## CCCCCCCCCCCCCCCC(=O)N[C@H](Cc1ccc(OCCCCC)cc1)C(=O)CP(=O)(O)O [g12]
[1]
  ATX activity (%) 1 μM: 93%
  ATX activity (%) 10 μM: 84%

## CCCCCCCCCCCCCCCC(=O)N[C@@H](Cc1ccc(OCCCCC)cc1)C(=O)CP(=O)(O)O [g13]
[1]
  ATX activity (%) 1 μM: 95%
  ATX activity (%) 10 μM: 83%
